US12071436B2, “Anti-parasitic compounds and uses thereof” (Memorial Sloan-Kettering Cancer Center, priority 2016, dated 2024)
Converted amounts (≈) assume the structure as drawn. “Also recorded” adds a separate entry of the source. Like-named read-outs stand apart in the source and are kept apart here.

Columns and labels:
[1] = system: HepG2 human hepatoma cells; test: HepG2 cytotoxicity, MTS cell proliferation assay; assay type: cell-based; conditions: 48 h, n=1
Protocol: (§1) Select compounds described herein were evaluated for structure-activity analyses for anti-plasmodial activity in vitro. For Dd2 EC50 (M), calculations were for n=3. For HepG2 EC50 (M), calculations were for n=1. For the human microsomal stability determination, t was 60 minutes.
Selected compounds were evaluated for cytotoxicity using HepG2 human hepatoma cells. A 384-well clear bottom plate was seeded with 2,500 cells/well and incubated for 24 h. Serial dilutions of the compound (were added to the plate and plates were incubated for an additional 48 h. Viability of cells were assessed by MTS [(3-(4,5-dimethylthiazol-2-yl)-5-(3-carboxymethoxyphenyl)-2-(4-sulfophenyl)-2H-tetrazolium) cell proliferation assay (CellTiter 96® Aqueous non-radioactive cell proliferation assay, Promega) (See Cory et al., Cancer Communications, 3, 1991, p. 207-212).

P. falciparum Dd2 = test: Anti-plasmodial growth inhibition, SYBR green I-based DNA quantification; assay type: cell-based; conditions: Plasmodium falciparum, 72 h incubation, n=3
Protocol: as §1
Different dilutions of the compound in RPMI 1640 (Life Technologies) from a stock of 10 mM in dimethyl sulfoxide (DMSO) were added to the culture at a 1% parasitemia and 2% hematocrit in 96-well black plates (Santa Cruz Biotechnology). Maximum DMSO concentration in the culture never exceeded 0.25%. Chloroquine at 1 μM was used as a positive control to determine the baseline value. Following 72 h incubation at 37° C., the ability of the compounds to inhibit growth of the parasite was determined by a SYBR green I-based DNA quantification assay (See Bennett et al., 2004, Chemother. 48, 1807-1810; see also Johnson et al., 2007, Antimicrob. Agents. Chemother. 51, 1926-1933; Smilkstein et al., 2004, Antimicrob. Agents. Chemother. 48, 1803-1806). EC50 was calculated (n=3) from a dose response curve that was generated from a concentration range of 0-20 μM using GraphPad Prism v5.0.

Asynchronous cultures = test: Parasitocidal or parasitostatic determination (rate of killing); assay type: cell-based; conditions: for parasitocidal activity (rate of killing): 3×IC50, asynchronous cultures treated for 12, 24, 48, or 72 hours, washed, monitored for continued growth
Protocol: Asynchronous cultures were grown and treated with compounds, vehicle control or Dihydroartemisinin at 3×IC50 to determine their respective rate of killing curves. Cultures were treated for 12, 24, 48, or 72 hours with compound, washed several times to remove any inhibitor, and monitored for continued growth for several days. […] Overall, the exemplary compounds including, but not limited to, Tan003-M03 and ent-Tan003-D20 are parasitocidal agents blocking parasite maturation at the segmenter stage preventing egress, a novel mechanism of action absent among current antimalarials.

[2] = PAMPA, Corning Gentest Pre-coated PAMPA plate; assay type: in vitro ADME; conditions: 1×PBS, pH 7.4, five hours, ambient temperature, read-out: Permeability (log Pe, in [cm/s]) (converted)
Protocol: For selected compounds, a Parallel artificial membrane permeability assay (PAMPA) analysis was conducted. The 10 mM DMSO stock solutions for selected compounds (Tan003-M03, ent-Tan003-M03, Tan003-O08, and Tan003-D20) were diluted 50 fold with 1×PBS, pH 7.4, for a dose concentration of 200 µM and a volume of 300 μL in the Donor compartment of the Corning Gentest Pre-coated PAMPA plate. After preparation of the Donor plate, any precipitation was noted. The Acceptor compartment was filled with 1×PBS (200 μL), pH 7.4. After careful assembly of the PAMPA plate, it was left to incubate for five hours in the dark at ambient temperature. The previously prepared solubility assay was used to measure the initial concentration of the sample in buffer (C0). After the incubation was complete, the PAMPA plate was disassembled, and the samples were transferred from the Donor and Acceptor plates to 96-well plates for analysis by chemiluminescent nitrogen detection (CLND. The C0 plate was filtered prior to analysis by CLND.

[3] = Human microsomal stability; assay type: in vitro ADME; conditions: t was 60 minutes
Protocol: as §1
To determine microsomal stability for selected compounds, a reaction plate was prepared by adding 691.25 μL, pre-warmed (37° C.) microsomal solution (0.63 mg/mL protein in 100 mM KPO4 with 1.3 mM EDTA) to an empty well of a 96 well plate and maintained at 37° C. The diluted 0.1 mM compound (8.75 μL) is added to the microsomal solution in the reaction plate and mixed thoroughly by repeated pipetting. The resulting solutions were pre-incubated for 5 minutes at 37° C. before preparing the T=0 plates. For the T=0 plates, an aliquot (160 μL) of each reaction solution was added to an empty well of a 96 well plate, as an exact replicate of the Reaction Plate. Cold (4° C.) MeOH (400 μL) is added to each well and mixed thoroughly by repeated pipetting. NADPH Regeneration solution (40 μL) is added to each well and mixed thoroughly by repeated pipetting. For the T=60 minute Incubation Plates (without NADPH), an aliquot (160 μL) of each reaction solution was added to an empty well of a 96 well plate, as an exact replicate of the Reaction Plate. LC-MS grade H2O (40 μL) is added to each well and mixed thoroughly by repeated pipetting. The plate was sealed and incubated at 37° C. for the incubation period. After incubation, cold (4° C.) MeOH (400 μL) is added to each well and mixed thoroughly by repeated pipetting. For the T=60 minute Incubation Plates, NADPH (95 μL) was added to the remaining solution (microsomes+test compound) in each well in the previously-prepared reaction plate to initiate the reaction. The plate was sealed and incubated at 37° C. for the incubation period. An aliquot (100 μL) was removed from each well at the desired time point and dispensed into a well of a 96-well plate. 200 μL of cold (4° C.) MeOH was […] the reaction.

Kinetic solubility assay = assay type: physicochemical; conditions: 24 °C, kinetic from dmso stock, ambient temperature
[4] = system: synchronized parasite cultures (Dd2); test: Stage specific parasite inhibition (Giemsa smears, flow cytometry); assay type: cell-based, P. falciparum; conditions: for parasite stage development, Giemsa staining: 3×IC50, synchronized Dd2 cultures treated at ring, trophozoite or schizont stages, smears every 12 hours; for parasite stage progression, flow cytometry: 3×IC50, synchronized Dd2 cultures, YoYo-I DNA staining
Protocol: Select compounds described herein were evaluated for stage specific inhibition of parasite development. Tightly synchronized parasite cultures (Dd2) were treated with 3×IC50 concentrations of compound Tan003-M03 (“M03”), compound ent-Tan003-D20 (“D20-ent”), compound Tan003-O08 (“008”) or compound Tan002-O12 (“012”) at early ring, late ring, trophozoite, and schizont stages. Every 12 hours, Giemsa smears were made for treated cultures and samples were also collected and fixed for flow cytometry. […] Prior to flow analysis, fixed samples were permeabilized, RNase treated, and stained with YoYo-I as described in Bouillon et al., 2013. […] As the parasite matures, the DNA content increases and peaks start to spread to the right because of schizogony. Following reinvasion parasitemia increases in the next growth cycle, which is represented by an increase in peak height.

[5] = Plasma pharmacokinetics and liver distribution study in female BALB/c mice; assay type: in vivo, mouse; conditions: 100 mg/kg, female BALB/c mice; for Tmax: mouse, plasma, read-out: Tmax (plasma)
Protocol: A plasma pharmacokinetics and liver distribution study of selected compounds, including Pyrrolopyridine-008 (2015-foleyc-216), Pyrrolopyridine-D20-ent (2015-foleyc-217), and Pyrrolopyridine-M03 (2015-foleyc-218), in female BALB/c mice was conducted following a single intraperitoneal and oral administration. […] The blood samples were collected from a set of […] mice at each time point in labeled micro centrifuge tube containing K2EDTA as anticoagulant. Plasma samples were separated by centrifugation at 4000 rpm for 10 min and stored below −70° C. until bioanalysis. After collection of blood sample, animals were humanely euthanized by carbon dioxide asphyxiation to collect liver from Group 1 and Group 2 at all the time points. The collected tissues were rinsed in PBS and were homogenized with nine times of liver weight in ice cold phosphate buffer saline (pH 7.4) and stored below −70° C. until bio-analysis. Total homogenate volume was ten times the tissue weight. All samples were processed for analysis by protein precipitation using acetonitrile and analyzed with fit-for-purpose LC-MS/MS method (LLOQ: 2.01 ng/mL for plasma and 50.30 ng/g for liver). Pharmacokinetic parameters were calculated using the non-compartmental analysis tool of Phoenix WinNonlin® (Version 6.3).

[6] = 50 mM NaPO4 pH 6.5 buffer, pH 6.5, aqueous buffer, 50 mM NaPO4 pH6.5, 2.0% DMSO, read-out: Solubility LogS, at pH 6.5 (converted)
[7] = 1×PBS pH 7.4 buffer, pH 7.4, aqueous buffer, 1×PBS pH7.4, 2.0% DMSO, read-out: Solubility LogS, at pH 7.4 (converted)
[8] = SGF pH 1.2 buffer, pH 1.2, simulated gastric fluid, SGF pH1.2, 2.0% DMSO, read-out: Solubility LogS, at pH 1.2 (converted)

CC(C)NC(=O)N1Cc2cc(C(=O)NCC(F)(F)F)nc(-c3cccc(-c4cc5ccccc5o4)c3)c2[C@H]1CCO [Tan003-M03, (R)-4-(3-(benzofuran-2-yl)phenyl)-3-(2-hydroxyethyl)-N^2-isopropyl-N^6-(2,2,2-trifluoroethyl)-1,3-dihydro-2H-pyrrolo[3,4-c]pyridine-2,6-dicarboxamide]
EC50 [1]: 45 µM | EC50 (P. falciparum Dd2): 0.24 ± 0.07 µM | parasitocidal activity (rate of killing) (Asynchronous cultures): parasitocidal and prohibit progression beyond segmenter stages; also recorded: parasitocidal and prevent any parasite development beyond the schizont stage when treated for at least 48 hours | Papp at 5 h, 200 µM [2]: 3.98 ×10⁻⁶ cm/s | Human microsomal stability (%) [3]: 61.5% | solubility at 24 h (Kinetic solubility assay; [6]): 6.31 µM (≈ 3.57 µg/mL) | solubility at 24 h (Kinetic solubility assay; [7]): 7.94 µM (≈ 4.5 µg/mL) | solubility at 24 h (Kinetic solubility assay; [8]): 7.94 µM (≈ 4.5 µg/mL) | parasite stage development, Giemsa staining [4]: inhibit parasite development before egress | parasite stage progression, flow cytometry [4]: block parasite stage progression prior to egress

CC(C)(C)[S@@+]([O-])N1Cc2cc(C(=O)NCc3ccc4c(c3)OCO4)nc(-c3cccc(-c4cccnc4)c3)c2[C@H]1CCO [Tan003-008]
EC50 [1]: 41 µM | EC50 (P. falciparum Dd2): 0.53 ± 0.11 µM | Papp at 5 h, 200 µM [2]: 1.82 ×10⁻⁶ cm/s | Human microsomal stability (%) [3]: < 1% | solubility at 24 h (Kinetic solubility assay; [6]): 10 µM (≈ 5.99 µg/mL) | solubility at 24 h (Kinetic solubility assay; [7]): 12.6 µM (≈ 7.54 µg/mL) | solubility at 24 h (Kinetic solubility assay; [8]): 158 µM (≈ 94.9 µg/mL)

CC(C)NC(=O)N1Cc2cc(C(=O)NCC(F)(F)F)nc(-c3cccc(-c4cc5ccccc5o4)c3)c2[C@@H]1CCO [ent-Tan003-M03]
EC50 (P. falciparum Dd2): 0.2 ± 0.02 µM | Human microsomal stability (%) [3]: 62.7% | solubility at 24 h (Kinetic solubility assay; [7]): 6.31 µM (≈ 3.57 µg/mL)

CC(C)(C)[S@@+]([O-])N1Cc2cc(C(=O)NCc3ccccc3F)nc(-c3cccc(-c4cccnc4)c3)c2[C@H]1CCO [ent-Tan003-D20, (R)-2-((R)-tert-butylsulfinyl)-N-(2-fluorobenzyl)-3-(2-hydroxyethyl)-4-(3-(pyridin-3-yl)phenyl)-2,3-dihydro-1H-pyrrolo[3,4-c]pyridine-6-carboxamide]
EC50 [1]: 60 µM | EC50 (P. falciparum Dd2): 0.38 ± 0.09 µM | parasitocidal activity (rate of killing) (Asynchronous cultures): parasitocidal and prohibit progression beyond segmenter stages; also recorded: parasitocidal and prevent any parasite development beyond the schizont stage when treated for at least 48 hours | parasite stage development, Giemsa staining [4]: inhibit parasite development before egress | parasite stage progression, flow cytometry [4]: block parasite stage progression prior to egress

CCOC(=O)c1cc2c(c(-c3ccccc3)n1)[C@@H](CCO)N([S@+]([O-])C(C)(C)C)C2 [Tan002-O12, Ethyl (R)-2-((R)-tert-butylsulfinyl)-3-(2-hydroxyethyl)-4-phenyl-2,3-dihydro-1H-pyrrolo[3,4-c]pyridine-6-carboxylate]
EC50 [1]: > 100 µM | EC50 (P. falciparum Dd2): 0.89 ± 0.13 µM | Tmax ([5]; ip, single intraperitoneal dose): 60 min | Tmax ([5]; single oral dose): 30 min | plasma concentrations quantifiable till ([5]; single intraperitoneal dose): 12 h | plasma concentrations quantifiable till ([5]; single oral dose): 12 h | parasitocidal activity (rate of killing) (Asynchronous cultures): not seen; also recorded: did not show any parasitocidal activity | parasite stage development, Giemsa staining [4]: inhibit parasite development before egress | parasite stage progression, flow cytometry [4]: block parasite stage progression prior to egress

CC(C)(C)[S@@+]([O-])N1Cc2cc(C(=O)NCc3ccc4c(c3)OCO4)nc(-c3cccc(-c4cccnc4)c3)c2[C@H]1CCO [Tan003-O08, (R)-N-(benzo[d][1,3]dioxol-5-ylmethyl)-2-((R)-tert-butylsulfinyl)-3-(2-hydroxyethyl)-4-(3-(pyridin-3-yl)phenyl)-2,3-dihydro-1H-pyrrolo[3,4-c]pyridine-6-carboxamide]
viable parasites in asynchronous culture (Asynchronous cultures; treatment for 72 hours): significantly decreases viable parasites | parasite stage development, Giemsa staining [4]: inhibit parasite development before egress | parasite stage progression, flow cytometry [4]: block parasite stage progression prior to egress

CC(C)(C)[S@+]([O-])N1Cc2cc(C(=O)NCc3ccccc3F)nc(-c3cccc(-c4cccnc4)c3)c2[C@@H]1CCO [Tan003-D20]
EC50 (P. falciparum Dd2): 0.38 ± 0.02 µM | Papp at 5 h, 200 µM [2]: 2.4 ×10⁻⁶ cm/s | Human microsomal stability (%) [3]: <1% | solubility at 24 h (Kinetic solubility assay; [6]): 6.31 µM (≈ 3.61 µg/mL) | solubility at 24 h (Kinetic solubility assay; [7]): 7.94 µM (≈ 4.55 µg/mL) | solubility at 24 h (Kinetic solubility assay; [8]): 158 µM (≈ 90.8 µg/mL)
